Data reported in patent US20110206756A1, “DITHI[…] CHELATES AND METHODS OF MAKING AND USING THEREOF” (UNIVERSITY OF UTAH RESEARCH FOUNDATION, priority 2008, published 2011).
pIC50: −log10 of the molar value.

Assays:
[1] = tested on: HL-60 cells; assay: Leukemia cell growth in vivo, HL-60 flank tumors in mice; design: species or system NOD/SCID IL2Rγ^null mice
Excerpt: In another preliminary experiment, the effect of DETC/metal chelates on leukemia cell growth in vivo was studied. NOD/SCID IL2Rγ^null mice were implanted bilaterally in the flanks with 19×10^6 HL-60 cells. […] The experiment was terminated on day 15. At that point 3 out of 4 control animals had died and the one remaining alive had tumor volumes that had exceeded 10% of initial body weight. None of the animals treated with DETC/Cu died.

[2] = tested on: HL-60 myeloid leukemia cell line; conditions: in P123 Pluronic micelles; for cell growth inhibition compared with vehicle: HL-60, up to 0.24 μM, 3 days
Method: The in vitro anti-leukemic activity of both chelates using the HL-60 myeloid leukemia cell line was compared. […] The DETC/metal chelates were initially dissolved in dimethylsulfoxide (DMSO). This 2 mM DETC/metal stock in DMSO was then mixed with a polymer stock and micellization was allowed to occur at room temperature. The final polymer concentration was 2% by weight. […] DETC/metal chelates were added at concentrations of up to 0.24 μM. Cell growth was assessed after 3 days using the MTS assay.

[3] = tested on: HL-60 cells; conditions: HL-60, 0.32 μM, 24 hours, average and SEM of 3 experiments; controls 7±1%
Method: HL-60 cells were treated with DETC/Cu^2+ at a concentration of 0.32 μM for 24 hours upon which the number of apoptotic cells was determined using propidium iodide (PI) staining and flow cytometry. Analysis for the presence of apoptotic cells was modeled using the ModFit software.

[4] = tested on: colon cancer cell line DLD-1; conditions: read-out: 50% growth inhibitory concentration (IC50); DLD-1, two days, in P123 micelles
Method: (§1) The effect of DETC/Cu^2+ chelates on the growth of 3 solid tumor cell lines in vitro was studied. The cell lines studied were the colon cancer cell line DLD-1, the prostate cancer cell line PPC-1 and the hepatoma cell line Hep-3B. […] Cells in logarithmic growth phase were cultured in RPMI1640/10% FBS media at a concentration of 120,000 cells/mL. DETC/Cu^2+ was added to the cells at concentrations ranging from 0 to 1 μM. […] Two days after drug addition, cell growth was assayed using the CellTiter 96 assay from Promega (Madison, Wis.) using the manufacturer's protocol.

[5] = tested on: prostate cancer cell line PPC-1; conditions: read-out: 50% growth inhibitory concentration (IC50); PPC-1, two days, in P123 micelles
Method: as §1

[6] = tested on: hepatoma cell line Hep-3B; conditions: read-out: 50% growth inhibitory concentration (IC50), two days, in P123 micelles
Method: as §1

| SMILES | toxicity ([1]; 2 μmol/kg intravenously every other day, in P123 micelles) | tumor volume, tumor growth ([1]; after 12 days of therapy, 2 μmol/kg i.v. every other day, versus P123 micelle controls) | animals that died ([1]; day 15, 4 mice per group, 3 out of 4 controls died) | relative potency of growth inhibition ([2]; HL-60, 3 days) | cell growth inhibition compared with vehicle [2] | apoptotic cells [3] [%] | pIC50 [4] | pIC50 [5] | pIC50 [6] |
| --- | --- | --- | --- | --- | --- | --- | --- | --- | --- |
| CCN(CC)C(=S)[S-].CCN(CC)C(=S)[S-].[Cu+2] [DETC/Cu^2+, copper salt of diethyldithiocarbamate] | No obvious toxicity | delay in tumor growth | None | more potent than the DETC/Ag^+ chelate | growth inhibition to a much greater extent | 16±2 | 6.43 | 6.74 | 6.89 |
| CCN(CC)C(=S)[S-].[Ag+] [DETC/Ag^+, silver salt of diethyldithiocarbamate] | – | – | – | – | growth inhibition to a much greater extent | – | – | – | – |
